Reference: ChEMBL document CHEMBL1152560, “Substituted 2-arylbenzothiazoles as kinase inhibitors: hit-to-lead optimization” (Bioorg Med Chem, 2009)

Columns and labels:
[1] = target: High affinity nerve growth factor receptor (Homo sapiens) (UniProt P04629); assay: Residual activity of TRK-A at 10 uM by microplate scintillation counting
[2] = target: Serine/threonine-protein kinase PAK 3 (Homo sapiens) (UniProt O75914); assay: Residual activity of PAK3 at 0.1 uM by microplate scintillation counting
Sequence of Serine/threonine-protein kinase PAK 3 (Homo sapiens) (O75914 whole entry, looked up): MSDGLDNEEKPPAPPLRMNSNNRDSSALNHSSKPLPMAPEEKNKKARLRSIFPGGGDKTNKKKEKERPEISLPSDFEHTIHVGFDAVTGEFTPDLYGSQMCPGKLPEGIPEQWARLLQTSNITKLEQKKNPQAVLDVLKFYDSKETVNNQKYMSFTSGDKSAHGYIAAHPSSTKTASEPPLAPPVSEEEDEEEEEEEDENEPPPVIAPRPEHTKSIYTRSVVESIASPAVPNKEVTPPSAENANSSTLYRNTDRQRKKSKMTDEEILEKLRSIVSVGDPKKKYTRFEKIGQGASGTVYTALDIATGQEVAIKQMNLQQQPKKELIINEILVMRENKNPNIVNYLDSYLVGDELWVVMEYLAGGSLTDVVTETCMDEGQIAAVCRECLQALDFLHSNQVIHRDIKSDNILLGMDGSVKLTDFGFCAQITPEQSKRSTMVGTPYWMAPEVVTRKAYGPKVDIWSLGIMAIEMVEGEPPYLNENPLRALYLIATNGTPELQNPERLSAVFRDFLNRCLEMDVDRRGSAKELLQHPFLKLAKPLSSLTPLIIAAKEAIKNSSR

[3] = target: T1, Ephrin type-A receptor 8 (Homo sapiens) (UniProt P29322); assay: Residual activity of EPHA8 at 10 uM by microplate scintillation counting
T1 sequence (whole entry): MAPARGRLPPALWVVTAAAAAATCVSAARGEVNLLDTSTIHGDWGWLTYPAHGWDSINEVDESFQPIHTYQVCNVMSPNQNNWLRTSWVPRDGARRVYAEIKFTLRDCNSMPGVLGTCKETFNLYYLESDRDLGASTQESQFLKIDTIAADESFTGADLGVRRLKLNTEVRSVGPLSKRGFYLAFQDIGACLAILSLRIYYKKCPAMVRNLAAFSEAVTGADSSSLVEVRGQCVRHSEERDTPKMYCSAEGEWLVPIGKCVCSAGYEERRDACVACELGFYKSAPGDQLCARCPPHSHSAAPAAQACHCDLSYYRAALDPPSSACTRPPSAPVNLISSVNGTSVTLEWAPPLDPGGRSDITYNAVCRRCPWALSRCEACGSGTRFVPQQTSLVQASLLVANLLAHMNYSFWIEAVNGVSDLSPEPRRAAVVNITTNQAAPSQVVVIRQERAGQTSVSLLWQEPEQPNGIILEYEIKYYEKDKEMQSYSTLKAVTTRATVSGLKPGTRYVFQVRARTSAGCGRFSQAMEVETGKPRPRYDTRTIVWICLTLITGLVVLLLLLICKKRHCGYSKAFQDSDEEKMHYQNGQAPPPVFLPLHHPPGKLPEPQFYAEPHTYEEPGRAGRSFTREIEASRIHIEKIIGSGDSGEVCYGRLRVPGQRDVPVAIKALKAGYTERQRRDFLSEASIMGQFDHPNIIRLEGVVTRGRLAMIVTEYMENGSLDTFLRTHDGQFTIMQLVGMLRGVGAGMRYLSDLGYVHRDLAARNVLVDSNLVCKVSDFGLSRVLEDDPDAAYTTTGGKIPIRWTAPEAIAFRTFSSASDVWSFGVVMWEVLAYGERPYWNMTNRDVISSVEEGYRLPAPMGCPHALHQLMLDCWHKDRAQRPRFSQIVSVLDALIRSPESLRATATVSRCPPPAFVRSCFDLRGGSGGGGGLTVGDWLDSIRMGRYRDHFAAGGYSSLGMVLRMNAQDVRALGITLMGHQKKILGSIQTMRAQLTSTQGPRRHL

[4] = target: T2, Serine/threonine-protein kinase PLK4 (Homo sapiens) (UniProt O00444); assay: Residual activity of SAK at 1 uM by microplate scintillation counting
T2 sequence (whole entry): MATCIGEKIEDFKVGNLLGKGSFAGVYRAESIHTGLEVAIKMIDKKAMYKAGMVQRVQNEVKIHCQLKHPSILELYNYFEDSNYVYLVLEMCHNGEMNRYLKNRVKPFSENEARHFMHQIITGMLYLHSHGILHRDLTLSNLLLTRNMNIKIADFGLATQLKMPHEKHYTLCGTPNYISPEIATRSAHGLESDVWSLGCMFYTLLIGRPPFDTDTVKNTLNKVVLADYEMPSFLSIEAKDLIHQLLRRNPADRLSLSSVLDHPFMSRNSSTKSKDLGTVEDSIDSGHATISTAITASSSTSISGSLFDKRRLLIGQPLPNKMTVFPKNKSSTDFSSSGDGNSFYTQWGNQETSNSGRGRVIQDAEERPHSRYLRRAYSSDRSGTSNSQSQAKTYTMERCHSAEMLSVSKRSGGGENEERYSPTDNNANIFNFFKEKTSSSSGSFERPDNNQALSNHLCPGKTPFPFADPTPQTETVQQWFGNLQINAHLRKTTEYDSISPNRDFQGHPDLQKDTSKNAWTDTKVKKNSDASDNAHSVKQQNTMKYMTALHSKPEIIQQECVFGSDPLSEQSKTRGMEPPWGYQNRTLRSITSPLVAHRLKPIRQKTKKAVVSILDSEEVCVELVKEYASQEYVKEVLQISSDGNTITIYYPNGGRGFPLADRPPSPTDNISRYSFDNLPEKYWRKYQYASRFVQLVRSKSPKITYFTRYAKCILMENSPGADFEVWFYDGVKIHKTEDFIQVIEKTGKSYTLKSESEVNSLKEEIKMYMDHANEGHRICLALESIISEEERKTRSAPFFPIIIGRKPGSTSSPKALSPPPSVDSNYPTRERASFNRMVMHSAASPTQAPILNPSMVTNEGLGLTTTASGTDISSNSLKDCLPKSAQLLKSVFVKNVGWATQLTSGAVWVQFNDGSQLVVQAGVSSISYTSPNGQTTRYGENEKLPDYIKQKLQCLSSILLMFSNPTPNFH

[5] = target: Homeodomain-interacting protein kinase 1 (Homo sapiens) (UniProt Q86Z02); assay: Residual activity of HIPK1 at 0.1 uM by microplate scintillation counting
[6] = target: Serine/threonine-protein kinase PAK 4 (Homo sapiens) (UniProt O96013); assay: Residual activity of PAK4 at 10 uM by microplate scintillation counting
Sequence of Serine/threonine-protein kinase PAK 4 (Homo sapiens) (O96013 whole entry, looked up): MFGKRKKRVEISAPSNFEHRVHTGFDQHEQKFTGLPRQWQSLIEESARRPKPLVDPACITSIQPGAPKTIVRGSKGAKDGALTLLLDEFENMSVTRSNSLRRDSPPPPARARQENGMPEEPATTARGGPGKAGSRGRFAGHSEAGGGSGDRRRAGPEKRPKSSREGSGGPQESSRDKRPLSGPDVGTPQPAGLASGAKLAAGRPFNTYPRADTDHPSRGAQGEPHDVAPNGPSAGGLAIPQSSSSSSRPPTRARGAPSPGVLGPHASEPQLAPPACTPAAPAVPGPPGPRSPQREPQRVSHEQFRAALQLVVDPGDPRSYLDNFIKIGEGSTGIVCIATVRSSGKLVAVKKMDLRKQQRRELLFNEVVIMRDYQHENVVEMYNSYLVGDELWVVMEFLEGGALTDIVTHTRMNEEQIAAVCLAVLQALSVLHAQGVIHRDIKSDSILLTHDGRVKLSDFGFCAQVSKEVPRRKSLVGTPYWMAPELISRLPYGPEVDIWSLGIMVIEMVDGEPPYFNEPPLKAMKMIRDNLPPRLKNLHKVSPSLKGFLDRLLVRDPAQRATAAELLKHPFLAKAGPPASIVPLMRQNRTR

[7] = target: MAP kinase-activated protein kinase 3 (Homo sapiens) (UniProt Q16644); assay: Residual activity of MAPKAPK3 at 0.1 uM by microplate scintillation counting
[8] = target: Proto-oncogene tyrosine-protein kinase ROS (Homo sapiens) (UniProt P08922); assay: Residual activity of ROS at 10 uM by microplate scintillation counting
Sequence of Proto-oncogene tyrosine-protein kinase ROS (Homo sapiens) (P08922 whole entry): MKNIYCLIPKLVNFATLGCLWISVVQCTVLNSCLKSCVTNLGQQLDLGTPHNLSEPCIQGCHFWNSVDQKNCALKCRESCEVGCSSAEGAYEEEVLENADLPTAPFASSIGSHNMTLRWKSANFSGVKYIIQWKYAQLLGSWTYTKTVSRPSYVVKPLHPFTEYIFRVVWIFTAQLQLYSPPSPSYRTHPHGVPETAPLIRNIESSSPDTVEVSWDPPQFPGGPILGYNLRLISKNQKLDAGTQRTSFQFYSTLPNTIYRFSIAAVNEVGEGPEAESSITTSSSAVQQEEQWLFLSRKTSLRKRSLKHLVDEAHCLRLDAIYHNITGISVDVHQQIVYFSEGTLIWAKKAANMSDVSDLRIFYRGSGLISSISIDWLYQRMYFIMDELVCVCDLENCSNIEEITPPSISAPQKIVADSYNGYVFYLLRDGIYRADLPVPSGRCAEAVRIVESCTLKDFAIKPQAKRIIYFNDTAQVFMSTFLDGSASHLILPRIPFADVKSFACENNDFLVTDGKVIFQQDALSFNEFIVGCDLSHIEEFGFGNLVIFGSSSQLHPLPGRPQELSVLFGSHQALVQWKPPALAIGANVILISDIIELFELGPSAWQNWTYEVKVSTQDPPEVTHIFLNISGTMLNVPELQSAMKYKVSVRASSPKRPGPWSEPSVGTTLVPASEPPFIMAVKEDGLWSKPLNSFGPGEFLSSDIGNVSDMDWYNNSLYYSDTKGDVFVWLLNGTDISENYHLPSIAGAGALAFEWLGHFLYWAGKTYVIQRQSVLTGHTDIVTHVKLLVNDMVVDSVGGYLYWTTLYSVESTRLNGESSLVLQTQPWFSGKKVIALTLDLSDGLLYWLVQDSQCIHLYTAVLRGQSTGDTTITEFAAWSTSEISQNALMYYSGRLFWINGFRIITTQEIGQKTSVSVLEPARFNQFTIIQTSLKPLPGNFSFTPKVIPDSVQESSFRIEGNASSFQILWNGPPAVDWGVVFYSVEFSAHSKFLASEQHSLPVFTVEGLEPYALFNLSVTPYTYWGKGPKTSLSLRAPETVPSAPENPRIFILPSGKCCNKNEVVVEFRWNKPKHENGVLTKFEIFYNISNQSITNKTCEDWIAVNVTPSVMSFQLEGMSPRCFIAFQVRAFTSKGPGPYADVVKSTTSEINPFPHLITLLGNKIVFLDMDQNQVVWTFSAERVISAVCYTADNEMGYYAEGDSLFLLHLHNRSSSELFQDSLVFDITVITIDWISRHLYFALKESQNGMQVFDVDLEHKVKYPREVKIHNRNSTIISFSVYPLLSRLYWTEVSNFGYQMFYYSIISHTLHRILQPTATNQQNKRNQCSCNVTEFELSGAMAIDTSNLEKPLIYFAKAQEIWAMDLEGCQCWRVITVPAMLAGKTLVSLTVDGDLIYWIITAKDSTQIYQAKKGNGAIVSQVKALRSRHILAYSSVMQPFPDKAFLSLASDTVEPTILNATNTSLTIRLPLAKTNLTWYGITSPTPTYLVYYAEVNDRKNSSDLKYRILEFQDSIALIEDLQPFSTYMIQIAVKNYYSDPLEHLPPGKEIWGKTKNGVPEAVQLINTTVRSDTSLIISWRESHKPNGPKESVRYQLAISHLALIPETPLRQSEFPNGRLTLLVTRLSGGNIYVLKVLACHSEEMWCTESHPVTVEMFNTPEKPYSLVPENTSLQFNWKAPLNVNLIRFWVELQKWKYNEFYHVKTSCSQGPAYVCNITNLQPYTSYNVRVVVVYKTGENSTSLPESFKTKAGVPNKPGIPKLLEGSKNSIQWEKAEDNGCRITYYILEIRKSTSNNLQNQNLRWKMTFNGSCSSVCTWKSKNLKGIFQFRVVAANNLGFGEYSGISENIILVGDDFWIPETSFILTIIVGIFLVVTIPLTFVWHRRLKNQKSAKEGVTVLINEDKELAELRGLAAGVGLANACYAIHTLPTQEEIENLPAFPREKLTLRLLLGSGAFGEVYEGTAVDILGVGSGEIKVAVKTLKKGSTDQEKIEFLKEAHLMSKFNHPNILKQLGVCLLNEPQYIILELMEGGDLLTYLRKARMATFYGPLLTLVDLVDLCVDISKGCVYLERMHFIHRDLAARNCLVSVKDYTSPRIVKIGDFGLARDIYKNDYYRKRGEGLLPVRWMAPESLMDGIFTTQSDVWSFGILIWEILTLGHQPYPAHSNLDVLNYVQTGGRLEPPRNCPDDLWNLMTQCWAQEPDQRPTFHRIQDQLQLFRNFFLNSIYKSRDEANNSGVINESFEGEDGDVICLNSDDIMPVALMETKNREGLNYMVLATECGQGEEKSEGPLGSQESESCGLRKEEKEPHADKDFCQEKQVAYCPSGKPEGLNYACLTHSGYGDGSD

Aurora kinase B = Aurora kinase B (Homo sapiens, UniProt Q96GD4); assay: Residual activity of Aurora-B at 10 uM by microplate scintillation counting
[9] = system: Tyrosine-protein kinase ABL1 (Homo sapiens), P00519 [T315I]; assay: Residual activity of ABL1 T315I mutant at 1 uM by microplate scintillation counting
[10] = target: 3-phosphoinositide-dependent protein kinase 1 (Homo sapiens) (UniProt O15530); assay: Residual activity of PDK1 at 0.1 uM by microplate scintillation counting
Sequence of 3-phosphoinositide-dependent protein kinase 1 (Homo sapiens) (O15530 whole entry, looked up): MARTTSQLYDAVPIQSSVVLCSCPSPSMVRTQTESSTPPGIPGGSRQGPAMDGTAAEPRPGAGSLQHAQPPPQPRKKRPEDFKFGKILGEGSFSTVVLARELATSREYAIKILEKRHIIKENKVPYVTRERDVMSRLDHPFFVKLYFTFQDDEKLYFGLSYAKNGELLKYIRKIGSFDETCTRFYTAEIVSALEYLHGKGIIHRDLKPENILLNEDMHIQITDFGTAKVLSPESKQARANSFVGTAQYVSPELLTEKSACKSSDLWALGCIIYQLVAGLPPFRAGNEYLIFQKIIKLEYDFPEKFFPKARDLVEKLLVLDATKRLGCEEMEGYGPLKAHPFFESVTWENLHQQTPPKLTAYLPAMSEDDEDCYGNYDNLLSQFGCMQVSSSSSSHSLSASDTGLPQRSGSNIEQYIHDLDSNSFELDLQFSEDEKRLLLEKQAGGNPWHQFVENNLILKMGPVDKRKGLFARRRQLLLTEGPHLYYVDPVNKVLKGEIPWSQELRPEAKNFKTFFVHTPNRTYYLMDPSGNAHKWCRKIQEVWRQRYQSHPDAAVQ

[11] = target: Serine/threonine-protein kinase B-raf (Homo sapiens) (UniProt P15056); assay: Residual activity of Wild type B-RAF at 0.1 uM by microplate scintillation counting
[12] = target: Calcium/calmodulin-dependent protein kinase type II subunit beta (Homo sapiens) (UniProt Q13554); assay: Residual activity of CAMK2B at 10 uM by microplate scintillation counting
[13] = target: Cyclin-dependent kinase 2/cyclin A (Homo sapiens) (UniProt P24941+P20248+P78396); assay: Residual activity of CDK2/Cyclin A at 10 uM by microplate scintillation counting; type: protein-complex assay

Sequence of High affinity nerve growth factor receptor (Homo sapiens) (P04629 33-796 limits assumed): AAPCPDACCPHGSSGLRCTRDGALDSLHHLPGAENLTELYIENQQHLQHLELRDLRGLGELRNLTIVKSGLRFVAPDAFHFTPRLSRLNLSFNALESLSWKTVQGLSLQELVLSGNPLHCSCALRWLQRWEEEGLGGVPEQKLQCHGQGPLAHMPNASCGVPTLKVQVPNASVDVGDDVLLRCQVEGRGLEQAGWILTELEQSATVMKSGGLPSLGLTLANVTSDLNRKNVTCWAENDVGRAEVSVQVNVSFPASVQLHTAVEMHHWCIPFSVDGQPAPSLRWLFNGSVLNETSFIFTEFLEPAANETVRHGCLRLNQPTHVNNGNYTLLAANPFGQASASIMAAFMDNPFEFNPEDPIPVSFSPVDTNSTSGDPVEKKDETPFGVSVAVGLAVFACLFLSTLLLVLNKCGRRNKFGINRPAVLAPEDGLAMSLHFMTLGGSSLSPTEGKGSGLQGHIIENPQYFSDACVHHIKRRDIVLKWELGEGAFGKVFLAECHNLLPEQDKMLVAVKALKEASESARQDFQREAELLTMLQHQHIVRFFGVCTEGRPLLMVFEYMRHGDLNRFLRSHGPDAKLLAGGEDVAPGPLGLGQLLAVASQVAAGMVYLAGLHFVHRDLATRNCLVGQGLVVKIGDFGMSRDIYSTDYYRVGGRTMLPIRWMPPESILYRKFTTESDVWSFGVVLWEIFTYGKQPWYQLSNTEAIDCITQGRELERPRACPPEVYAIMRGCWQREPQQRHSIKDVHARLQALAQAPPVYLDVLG

Row | residual activity [1] [%] | residual activity [2] [%] | residual activity [3] [%] | residual activity [4] [%] | residual activity [5] [%] | residual activity [6] [%] | residual activity [7] [%] | residual activity [8] [%] | residual activity (Aurora kinase B) [%] | residual activity [9] [%] | residual activity [10] [%] | residual activity [11] [%] | residual activity [12] [%] | residual activity [13] [%] | Compound
1 | 55 | 95 | 185 | 19 | 83 | 91 | 93 | 54 | 3 | 95 | 95 | 98 | 56 | 79 | COc1cc2c(Oc3ccc(-c4nc5ccccc5s4)cc3)ncnc2cc1OCCCN1CCCC1
2 | 81 | 95 | 273 | 10 | 99 | 55 | 91 | 47 | 5 | 103 | 95 | 90 | 67 | 84 | COc1cc2c(Oc3ccc(-c4nc5ccccc5s4)cc3)ncnc2cc1OCCCN1CCN(C)CC1
3 | 34 | 97 | 114 | 26 | 85 | 50 | 94 | 38 | 3 | 96 | 97 | 95 | 58 | 73 | COc1cc2c(Oc3ccc(-c4nc5ccccc5s4)cc3F)ncnc2cc1OCCCN1CCN(C)CC1
